Test results as given in patent US20250145601A1, “NOVEL BICYCLIC COMPOUNDS AS RAD51 INHIBITORS” (SATYA THERAPEUTICS, INC., priority 2022, published 2025).

These compounds were tested on MDA MB 231 cells (assay: Antiproliferation assay in MDA MB 231 cells (Cell Titer Glo)). Conditions: Homo sapiens, MDA-MB-231, 216 h, MDAMB231 cell line, 9 day treatment, racemic compounds (Table 2).
Assay type: cell-based
Experimental: Antiproliferation Assay in MDA MB 231 Cells MDA MB 231 cells were seeded in 96 well plate at a seeding density of 250 cells/well. The cells were allowed to settle overnight under standard incubator conditions (37° C., 5% CO2). Next day treatment with increasing dose of test compounds and reference compounds were done to the respective wells and the cells were further incubated under standard cell culture conditions for another 4 days. On the 5th day, media was replenished with fresh treatment and cells were incubated for a total of 9 day treatment period. On the day of termination, appropriate volume of Cell Titer Glo reagent was added to the treatment (and control) wells and the plates were kept on a plate shaker @300 RPM for 15 min. Luminiscence reading (RLU) was […] RLU is directly proportional to ATP content and is directly related to number of metabolically active cells in the respective well. Calculation: a. Blank Correction: RLU of the Wells Containing No Cells is Considered as Blank and Subtracted from all RLU of the Treated and Control Wells [formula]

| SMILES | inhibition at 10 µM [%] |
| --- | --- |
| CCC(=O)N1N=C(c2c(C)c3ccsc3[nH]c2=O)CC1c1cnc(C)c(Cl)c1 (centres unmarked) [Example 52, 5-(5-(5-chloro-6-methylpyridin-3-yl)-1-propionyl-4,5-dihydro-1H-pyrazol-3-yl)-4-methylthieno[2,3-b]pyridin-6(7H)-one] | ≥ 50 |
| CCC(=O)N1N=C(c2c(C)c3ccsc3[nH]c2=O)CC1c1cnc(C)cc1OC (centres unmarked) [Example 53, 5-(5-(4-methoxy-6-methylpyridin-3-yl)-1-propionyl-4,5-dihydro-1H-pyrazol-3-yl)-4-methylthieno[2,3-b]pyridin-6(7H)-one] | < 50 |
| CCC(=O)N1N=C(c2c(C)c3ccsc3[nH]c2=O)CC1c1cnc(C)c(C)c1 (centres unmarked) [Example 54, 5-(5-(5,6-dimethylpyridin-3-yl)-1-propionyl-4,5-dihydro-1H-pyrazol-3-yl)-4-methylthieno[2,3-b]pyridin-6(7H)-one] | ≥ 50 |
| CCC(=O)N1N=C(c2c(C)c3ccsc3[nH]c2=O)CC1c1cnc(C)c(F)c1 (centres unmarked) [Example 55, 5-(5-(5-fluoro-6-methylpyridin-3-yl)-1-propionyl-4,5-dihydro-1H-pyrazol-3-yl)-4-methylthieno[2,3-b]pyridin-6(7H)-one] | ≥ 50 |
| CCC(=O)N1N=C(c2c(C)c3ccsc3[nH]c2=O)CC1c1cnc(C)cc1Cl (centres unmarked) [Example 56, 5-(5-(4-chloro-6-methylpyridin-3-yl)-1-propionyl-4,5-dihydro-1H-pyrazol-3-yl)-4-methylthieno[2,3-b]pyridin-6(7H)-one] | ≥ 50 |
| CCC(=O)N1N=C(c2c(C)c3ccsc3[nH]c2=O)CC1c1cnc(C)s1 (centres unmarked) [Example 57, 4-methyl-5-(5-(2-methylthiazol-5-yl)-1-propionyl-4,5-dihydro-1H-pyrazol-3-yl)thieno[2,3-b]pyridin-6(7H)-one] | ≥ 50 |
| CCC(=O)N1N=C(c2c(C)c3ccsc3[nH]c2=O)CC1C1CCCCC1 (centres unmarked) [Example 58, 5-(5-cyclohexyl-1-propionyl-4,5-dihydro-1H-pyrazol-3-yl)-4-methylthieno[2,3-b]pyridin-6(7H)-one] | < 50 |
| CCC(=O)N1N=C(c2c(C)c3cc(Cl)ccc3[nH]c2=O)CC1c1ccc(C)cc1 (centres unmarked) [Example 59, 6-chloro-4-methyl-3-(1-propionyl-5-(p-tolyl)-4,5-dihydro-1H-pyrazol-3-yl)quinolin-2(1H)-one] | ≥ 50 |
| CCC(=O)N1N=C(c2c(C)c3nc(Cl)ccc3[nH]c2=O)CC1c1ccc(C)cc1 (centres unmarked) [Example 61, 6-chloro-4-methyl-3-(1-propionyl-5-(p-tolyl)-4,5-dihydro-1H-pyrazol-3-yl)-1,5-naphthyridin-2(1H)-one] | ≥ 50 |
| CC(=O)N1N=C(c2c(C)c3ccsc3[nH]c2=O)CC1c1ccc(C)cc1 (centres unmarked) [Example 62, 5-(1-acetyl-5-(p-tolyl)-4,5-dihydro-1H-pyrazol-3-yl)-4-methyl-7,7a-dihydrothieno[2,3-b]pyridin-6(7H)-one] | ≥ 50 |
| Cc1ccc(C2CC(c3c(C)c4ccsc4[nH]c3=O)=NN2C(=O)C(C)C)cc1 (centres unmarked) [Example 63, 5-(1-isobutyryl-5-(p-tolyl)-4,5-dihydro-1H-pyrazol-3-yl)-4-methyl-7,7a-dihydrothieno[2,3-b]pyridin-6(7H)-one] | ≥ 50 |
| Cc1ccc(C2CC(c3c(C)c4ccsc4[nH]c3=O)=NN2C(=O)C(F)(F)F)cc1 (centres unmarked) [Example 64, 4-methyl-5-(5-(p-tolyl)-1-(2,2,2-trifluoroacetyl)-4,5-dihydro-1H-pyrazol-3-yl)-7,7a-dihydrothieno[2,3-b]pyridin-6(7H)-one] | ≥ 50 |
| CCC(=O)N1N=C(c2c(C)c3ccsc3[nH]c2=O)CC1c1ccc(C)cc1Cl (centres unmarked) [Example 65, 5-(5-(2-chloro-4-methylphenyl)-1-propionyl-4,5-dihydro-1H-pyrazol-3-yl)-4-methylthieno[2,3-b]pyridin-6(7H)-one] | ≥ 50 |
| CCC(=O)N1N=C(c2c(C)c3cc(Cl)cnc3[nH]c2=O)CC1c1ccc(C)cc1 (centres unmarked) [Example 67, 6-chloro-4-methyl-3-(1-propionyl-5-(p-tolyl)-4,5-dihydro-1H-pyrazol-3-yl)-1,8-naphthyridin-2(1H)-one] | < 50 |
| CCC(=O)N1N=C(c2c(C)c3ccsc3[nH]c2=O)CC1c1ccc(CF)cc1 (centres unmarked) [Example 68, 5-(5-(4-(fluoromethyl)phenyl)-1-propionyl-4,5-dihydro-1H-pyrazol-3-yl)-4-methylthieno[2,3-b]pyridin-6(7H)-one] | ≥ 50 |
| CCC(=O)N1N=C(c2c(C)c3ncccc3[nH]c2=O)CC1c1ccc(C)cc1 (centres unmarked) [Example 69, 4-methyl-3-(1-propionyl-5-(p-tolyl)-4,5-dihydro-1H-pyrazol-3-yl)-1,5-naphthyridin-2(1H)-one] | ≥ 50 |
| CCC(=O)N1N=C(c2c(C)c3ccsc3[nH]c2=O)CC1Cc1ccccc1 (centres unmarked) [Example 71, 5-(5-benzyl-1-propionyl-4,5-dihydro-1H-pyrazol-3-yl)-4-methylthieno[2,3-b]pyridin-6(7H)-one] | ≥ 50 |
| CCC(=O)N1N=C(c2c(C)c3cc(Cl)sc3[nH]c2=O)CC1c1ccc(C)cc1 (centres unmarked) [Example 72, 2-chloro-4-methyl-5-(1-propionyl-5-(p-tolyl)-4,5-dihydro-1H-pyrazol-3-yl)thieno[2,3-b]pyridin-6(7H)-one] | ≥ 50 |
| CCC(=O)N1N=C(c2c(C)c3cccnc3[nH]c2=O)CC1c1ccc(C)cc1 (centres unmarked) [Example 73, 4-methyl-3-(1-propionyl-5-(p-tolyl)-4,5-dihydro-1H-pyrazol-3-yl)-1,8-naphthyridin-2(1H)-one] | ≥ 50 |
| CCC(=O)N1N=C(c2c(C)c3ccc(C)cc3[nH]c2=O)CC1c1ccc(C)cc1 (centres unmarked) [Example 75, 4,7-dimethyl-3-(1-propionyl-5-(p-tolyl)-4,5-dihydro-1H-pyrazol-3-yl)quinolin-2(1H)-one] | ≥ 50 |
| CCC(=O)N1N=C(c2c(C)c3c(C)cccc3[nH]c2=O)CC1c1ccc(C)cc1 (centres unmarked) [Example 76, 4,5-dimethyl-3-(1-propionyl-5-(p-tolyl)-4,5-dihydro-1H-pyrazol-3-yl)quinolin-2(1H)-one] | ≥ 50 |
| CCC(=O)N1N=C(c2c(C)c3ccc(N4CCOCC4)cc3[nH]c2=O)CC1c1ccc(C)cc1 (centres unmarked) [Example 77, 4-methyl-7-morpholino-3-(1-propionyl-5-(p-tolyl)-4,5-dihydro-1H-pyrazol-3-yl)quinolin-2(1H)-one] | ≥ 50 |
| CCC(=O)N1N=C(c2c(C)c3cc(Cl)ncc3[nH]c2=O)CC1c1ccc(C)cc1 (centres unmarked) [Example 79, 6-chloro-4-methyl-3-(1-propionyl-5-(p-tolyl)-4,5-dihydro-1H-pyrazol-3-yl)-1,7-naphthyridin-2(1H)-one] | ≥ 50 |
| CCC(=O)N1N=C(c2c(C)c3cc(C)ncc3[nH]c2=O)CC1c1ccc(C)cc1 (centres unmarked) [Example 81, 4,6-dimethyl-3-(1-propionyl-5-(p-tolyl)-4,5-dihydro-1H-pyrazol-3-yl)-1,7-naphthyridin-2(1H)-one] | < 50 |
| CCC(=O)N1N=C(c2c(C)c3ccc(F)cc3[nH]c2=O)CC1c1ccc(C)cc1 (centres unmarked) [Example 83, 7-fluoro-4-methyl-3-(1-propionyl-5-(p-tolyl)-4,5-dihydro-1H-pyrazol-3-yl)quinolin-2(1H)-one] | ≥ 50 |
| CCC(=O)N1N=C(c2c(C)c3ccc(C)nc3[nH]c2=O)CC1c1ccc(C)cc1 (centres unmarked) [Example 84, 4,7-dimethyl-3-(1-propionyl-5-(p-tolyl)-4,5-dihydro-1H-pyrazol-3-yl)-1,8-naphthyridin-2(1H)-one] | ≥ 50 |
